The source of these data is BindingDB's records for patent US20250313563 (The Broad Institute, 2025).

The target of test [1] is Glycogen synthase kinase-3 alpha (Homo sapiens, UniProt P49840). Put plainly: TR-FRET Assay. An outline of the steps:
(§1)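 Signal is measured as TR-FRET between a terbium anti-phospho-Ser641 antibody and streptavidin-d2, added after an EDTA quench. Compounds are preincubated 30 min in assay buffer.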
(In TR-FRET formats the signal depends on donor and acceptor labels being close together.)

The target of test [2] is Glycogen synthase kinase-3 beta (Homo sapiens, UniProt P49841). Put plainly: TR-FRET Assay. An outline of the steps:
as §1

Where “and” joins values, the source holds several entries; their conditions need not be identical. Equal entries are not always repeated.

Sequence of Glycogen synthase kinase-3 alpha (P49840 whole entry): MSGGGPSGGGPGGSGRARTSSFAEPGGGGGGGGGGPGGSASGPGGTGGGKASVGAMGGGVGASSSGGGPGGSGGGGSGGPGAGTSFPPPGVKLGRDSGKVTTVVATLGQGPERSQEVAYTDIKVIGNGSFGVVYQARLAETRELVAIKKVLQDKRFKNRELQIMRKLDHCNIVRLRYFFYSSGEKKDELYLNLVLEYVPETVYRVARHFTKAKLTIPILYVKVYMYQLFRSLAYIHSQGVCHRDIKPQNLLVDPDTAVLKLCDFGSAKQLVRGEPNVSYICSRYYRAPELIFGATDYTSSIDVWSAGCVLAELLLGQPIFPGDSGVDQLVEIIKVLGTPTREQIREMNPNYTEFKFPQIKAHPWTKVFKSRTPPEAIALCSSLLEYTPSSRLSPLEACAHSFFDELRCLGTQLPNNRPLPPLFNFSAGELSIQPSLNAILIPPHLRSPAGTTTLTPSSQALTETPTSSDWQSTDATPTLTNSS
Sequence of Glycogen synthase kinase-3 beta (P49841 whole entry): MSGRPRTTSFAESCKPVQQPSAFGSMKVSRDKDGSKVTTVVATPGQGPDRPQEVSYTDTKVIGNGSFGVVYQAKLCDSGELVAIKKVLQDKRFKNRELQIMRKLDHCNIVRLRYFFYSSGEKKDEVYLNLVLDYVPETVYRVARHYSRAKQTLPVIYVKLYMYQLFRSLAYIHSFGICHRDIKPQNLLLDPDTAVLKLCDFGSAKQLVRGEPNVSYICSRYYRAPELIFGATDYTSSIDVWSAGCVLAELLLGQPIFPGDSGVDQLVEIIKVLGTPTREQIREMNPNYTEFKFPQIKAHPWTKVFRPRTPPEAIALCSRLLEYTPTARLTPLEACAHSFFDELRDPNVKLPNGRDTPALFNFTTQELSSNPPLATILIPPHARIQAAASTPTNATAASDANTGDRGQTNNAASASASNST

For orientation: IC50 means the point on the concentration scale where inhibition reaches its midpoint. High values mean weaker potency in that assay, low ones greater potency in that assay. With `Cc1ccc(C(=O)N2CC3(C2)C[C@@]2(CO3)C3=C(N=NC3)NC3=C2C(=O)CC(C)(C)C3)cc1C` [US20250313563, Compound 948039], the 50% inhibitory concentration (IC50) fell in the range of 0.1 to 1 µM in test [1] and 1 to 5 µM in test [2].
Turning to `CC[C@@]1(c2cccc(-c3cc(C)ncc3OC)c2)C2=CN=NC2NC2=C1C(=O)CC(C)(C)C2` (some centres undefined) [US20250313563, Compound 945995], the IC50 in test [1] is < 0.1 µM and 0.1 to 1 µM; in test [2] it was < 0.1 µM and 1 to 5 µM.
As for `Cc1ccc(S(=O)(=O)N2CCC3(CC2)C2=C(N=NC2)NC2=C3C(=O)CC(C)(C)C2)cc1` [US20250313563, Compound 947459], the IC50 in test [1] is less than 0.1 µM; in test [2], 0.1 to 1 µM.
The corresponding values for `CC[C@@]1(c2cccc(C(F)(F)F)c2)C2=CN=NC2NC2=C1C(=O)C[C@H](C)C2` (some centres undefined) [US20250313563, Compound 810452] are 0.1 to 1 µM and 1 to 5 µM.
For `CCC1(c2cccc(-c3ccncc3C)c2)C2=C(CC(C)(C)NC2=O)NC2N=NC(C)=C21` (centres undefined) [US20250313563, Compound 945599], the IC50 in test [1] and in test [2] was less than 0.1 µM in each case.
`CCC1(c2cccc(C(C)c3ncccn3)c2)C2=CN=NC2NC2=C1C(=O)CC(C)(C)C2` (centres undefined) [US20250313563, Compound 947434]: the figures for the IC50 in test [1] and in test [2] were less than 0.1 µM and 0.1 to 1 µM, respectively.
For `Cc1ccc(CC(=O)N2CC3(C2)CC2(CO3)C3=C(N=NC3)NC3=C2C(=O)CC(C)(C)C3)cc1` (centres undefined) [US20250313563, Compound 947281], the half-maximal inhibitory concentration (IC50) in test [1] was < 0.1 µM and 0.1 to 1 µM; in test [2] it was < 0.1 µM and 0.1 to 1 µM.
For `CC[C@@]1(c2cccc(Oc3ncccn3)c2)C2=C(CC(C)(C)NC2=O)NC2N=NC(F)=C21` (some centres undefined) [US20250313563, Compound 951944], the IC50 in test [1] was 1 to 5 µM; in test [2], more than 5 µM.
The corresponding values for `CC[C@]1(c2cccc(C3=C4CC=C(C)N=C4N=CC3)c2)C2=CN=NC2NC2=C1C(=O)NC(C)(C)C2` (some centres undefined) [US20250313563, Compound 948151] are 0.1 to 1 µM and more than 5 µM.
Taken in the same sequence, the figures for `CC[C@]1(c2cccc(N3CCCCC3)c2)C2=CN=NC2NC2=C1C(=O)CC(C)(C)C2` (some centres undefined) [US20250313563, Compound 810371] were more than 5 µM and more than 5 µM.
Taken in the same sequence, the figures for `O=C1C[C@@]2(CCOC2)CC2=C1C1(CCOCC1)C1=C(N=NC1)N2` [US20250313563, Compound 901475] were 0.1 to 1 µM and 0.1 to 1 µM.
Turning to `CC[C@@]1(c2cccc(C(C)C)c2)C2=C(CC(C)(C)NC2=O)NC2N=NC(C)=C21` (some centres undefined) [US20250313563, Compound 949646], the IC50 in test [1] and in test [2] was more than 5 µM in each case.
Consider `CCC1(c2cccc(N(C)c3cccc(F)n3)c2)C2=CN=NC2NC2=C1C(=O)CC(C)(C)C2` (centres undefined) [US20250313563, Compound 918274], for which the figures for the concentration for half-maximal inhibition (IC50) in test [1] and in test [2] were less than 0.1 µM and 0.1 to 1 µM, respectively.
Taken in the same sequence, the figures for `CCC1(c2cccc(-c3ccncc3F)c2)C2=C(CC(C)(C)NC2=O)NC2N=NC(C)=C21` (centres undefined) [US20250313563, Compound 945722] were less than 0.1 µM and less than 0.1 µM.
Taken in the same sequence, the figures for `CC[C@@]1(c2ccccc2)C2=CN=NC2NC2=C1C(=O)[C@H](C)C[C@@H]2C` (some centres undefined) [US20250313563, Compound 909217] were 0.1 to 1 µM and 1 to 5 µM.
As for `CC[C@]1(c2cccc(-c3cc(OC)ncc3F)c2)C2=CN=NC2NC2=C1C(=O)CC(C)(C)C2` (some centres undefined) [US20250313563, Compound 944035], the figures for the IC50 in test [1] and in test [2] were 1 to 5 µM and more than 5 µM, respectively.
With `CCC1(c2cccc(C(F)(F)F)c2)C2=CN=NC2NC2=C1C(=O)N(c1cccs1)CC2` (centres undefined) [US20250313563, Compound 950614], the figures for the IC50 in test [1] and in test [2] were less than 0.1 µM and 0.1 to 1 µM, respectively.
On to `CC[C@]1(c2cccc(-c3ccncc3F)c2)C2=C(CC(C)(C)NC2=O)NC2N=NC(C(F)F)=C21` (some centres undefined) [US20250313563, Compound 951612], for which the IC50 in test [1] was < 0.1 µM and 0.1 to 1 µM; in test [2], < 0.1 µM and 1 to 5 µM.
For the compound `Cc1cc(C)cc(C(=O)N2CC3(C2)C[C@@]2(CO3)C3=C(N=NC3)NC3=C2C(=O)CC(C)(C)C3)c1` [US20250313563, Compound 948223], the IC50 is < 0.1 µM and 0.1 to 1 µM in test [1]; < 0.1 µM and 0.1 to 1 µM in test [2].
With `CC[C@]1(c2cccc(-c3ccncc3F)c2)C2=CN=NC2NC2=C1C(=O)NC(C)(C)C2` (some centres undefined) [US20250313563, Compound 947874], the IC50 in test [1] was 0.1 to 1 µM; in test [2], 1 to 5 µM.
For `CCC1(c2cccc(-c3ccncc3F)c2)C2=C(CC(C)(C)NC2=O)NC2N=NC(Cl)=C21` (centres undefined) [US20250313563, Compound 949324], the half-inhibitory concentration (IC50) in test [1] is < 0.1 µM and 0.1 to 1 µM; in test [2], < 0.1 µM and 1 to 5 µM.
For `CC(C)(C)CC1=C2C(N=N1)NC1=C(C(=O)CC(C)(C)C1)[C@]21CCCc2ccccc21` (some centres undefined) [US20250313563, Compound 811595], the IC50 is 0.1 to 1 µM in test [1] and less than 0.1 µM in test [2].
The corresponding values for `CCC1(c2ccccc2)C2=C(N=NC2)NC2=C1C(=O)CC1(CCC1)C2` (centres undefined) [US20250313563, Compound 811555] are 0.1 to 1 µM and 0.1 to 1 µM.
Turning to `CC(C)S(=O)(=O)N1CCC2(CC1)C1=C(N=NC1)NC1=C2C(=O)CC(C)(C)C1` [US20250313563, Compound 913129], the IC50 in test [1] was less than 0.1 µM; in test [2] it was < 0.1 µM and 0.1 to 1 µM.
Turning to `CCC1(c2cccc(C(F)(F)F)c2)C2=CN=NC2NC2=C1C(=O)N(c1cc(C)n(C)n1)CC2` (centres undefined) [US20250313563, Compound 950608], the IC50 lay within 0.1 to 1 µM in test [1] and 1 to 5 µM in test [2].
Taken in the same sequence, the figures for `Cc1cc(S(=O)(=O)N2CCC3(CC2)C2=CN=NC2NC2=C3C(=O)CC(C)(C)C2)ccc1Cl` (centres undefined) [US20250313563, Compound 947475] were less than 0.1 µM and less than 0.1 µM.
Taken in the same sequence, the figures for `C[S@@+]([O-])c1cccc([C@]2(C)C3=C(CC(C)(C)CC3=O)NC3=C2C(CC(C)(C)C)N=N3)c1` (some centres undefined) [US20250313563, Compound 126191B:] were more than 5 µM and 0.1 to 1 µM.
Taken in the same sequence, the figures for `C[C@H]1C[C@@]2(CCO1)C1=C(N=NC1)NC1=C2C(=O)CC(C)(C)C1` [US20250313563, Compound 924307] were 0.1 to 1 µM and 0.1 to 1 µM.
Consider `CC1(C)CC(=O)C2=C(C1)NC1=C(CN=N1)C21CCN(S(C)(=O)=O)CC1` [US20250313563, Compound 880776], for which the IC50 in test [1] and in test [2] was less than 0.1 µM in each case.
With `C[C@@H]1C[C@@]2(CCO1)C1=C(N=NC1)NC1=C2C(=O)CC(C)(C)C1` [US20250313563, Compound 899559], the figures for the IC50 in test [1] and in test [2] were 0.1 to 1 µM and 1 to 5 µM, respectively.
Taken in the same sequence, the figures for `CC1(C)CC(=O)C2=C(C1)NC1=C(CN=N1)C21CN(S(=O)(=O)c2ccccn2)C1` [US20250313563, Compound 913262] were less than 0.1 µM and less than 0.1 µM.
Taken in the same sequence, the figures for `CC1(C)CC(=O)C2=C(C1)NC1=C(CN=N1)C2(C)C` [US20250313563, Compound 786065] were 1 to 5 µM and more than 1.67 µM.
The corresponding values for `CC[C@]1(c2cccc(CN(C)c3cc(C)cc(C)n3)c2)C2=CN=NC2NC2=C1C(=O)CC(C)(C)C2` (some centres undefined) [US20250313563, Compound 945615] are more than 5 µM and more than 5 µM.
As for `CC[C@@H]1C[C@]2(CCO1)C1=C(N=NC1)NC1=C2C(=O)CC(C)(C)C1` [US20250313563, Compound 924715], the IC50 in test [1] was less than 0.1 µM; in test [2], 0.1 to 1 µM.
Taken in the same sequence, the figures for `CC1(C)CC(=O)C2=C(C1)NC1N=NC=C1[C@]21C[C@H](c2ccncc2)C1` (some centres undefined) [US20250313563, Compound 889664] were less than 0.1 µM and 0.1 to 1 µM.
As to `CCC1(c2cccc(C(F)(F)F)c2)C2=CN=NC2NC2=C1C(=O)N(c1ccc(C)cc1)CC2` (centres undefined) [US20250313563, Compound 948241], the IC50 in test [1] was less than 0.1 µM; in test [2], 0.1 to 1 µM.
As for `CC[C@@]1(c2cccc(-c3ccnc(OC)c3)c2)C2=C(CC(C)(C)CC2=O)NC2N=NC(C)=C21` (some centres undefined) [US20250313563, Compound 913016], the IC50 is 0.1 to 1 µM in test [1] and 1 to 5 µM in test [2].
Taken in the same sequence, the figures for `CC[C@@]1(c2cccc(C(F)(F)F)c2)C2=CN=NC2NC2=C1C(=O)N(c1ccsc1)CC2` (some centres undefined) [US20250313563, Compound 952636] were more than 5 µM and more than 5 µM.
The corresponding values for `CCC1(c2cccc(N(c3cccnc3)C(C)C)c2)C2=CN=NC2NC2=C1C(=O)CC(C)(C)C2` (centres undefined) [US20250313563, Compound 885344] are less than 0.1 µM and less than 0.1 µM.
The corresponding values for `CCC1(c2cccc(-c3ccnc(C(C)C)c3)c2)C2=CN=NC2NC2=C1C(=O)CC(C)(C)C2` (centres undefined) [US20250313563, Compound 930569] are 0.1 to 1 µM and 1 to 5 µM.
As for `CC1(C)CC(=O)C2=C(C1)NC1N=NC(Br)=C1[C@@]21CCc2c(F)cccc21` (some centres undefined) [US20250313563, Compound 806938], the figures for the IC50 in test [1] and in test [2] were 0.1 to 1 µM and 1 to 5 µM, respectively.
The corresponding values for `CC[C@@]1(c2cccc(S(C)(=O)=O)c2)C2=CN=NC2NC2=C1C(=O)NC(C)(C)C2` (some centres undefined) [US20250313563, Compound 945604] are less than 0.1 µM and less than 0.1 µM.
As for `CCC1(c2cccc(-c3c(C)nn(C)c3C)c2)C2=CN=NC2NC2=C1C(=O)NC(C)(C)C2` (centres undefined) [US20250313563, Compound 945462], the IC50 in test [1] and in test [2] was less than 0.1 µM each time.
In the case of `CC1(C)CC(=O)C2=C(C1)NC1=C(CN=N1)[C@]21CCN(S(C)(=O)=O)C1` [US20250313563, Compound 942432], the IC50 in test [1] and in test [2] was less than 0.1 µM in each case.
Regarding `CC1(C)CC(=O)C2=C(C1)NC1=C(CN=N1)[C@]21C[C@H](n2cccn2)C1` [US20250313563, Compound 884005], the IC50 in test [1] and in test [2] was less than 0.1 µM throughout.
With `CC1(C)CC(=O)C2=C(C1)NC1=C(CN=N1)C2(c1ccccc1)c1ccccc1` [US20250313563, Compound 789461], the IC50 in test [1] was 1 to 5 µM; in test [2], more than 5 µM.
For the compound `CCC1(c2cccc(C(F)(F)F)c2)C2=CN=NC2NC2=C1C(=O)N(C1=CN=NC1)CC2` (centres undefined) [US20250313563, Compound 950479], the figures for the IC50 in test [1] and in test [2] were less than 0.1 µM and 0.1 to 1 µM, respectively.
